Like-named read-outs stand apart in the source and are kept apart here.
Key:
human D2 receptor [1] = biological target: T1, human D2 receptor (Homo sapiens, UniProt P14416); parameters: method as in PMID 12570798; details: D2-receptor antagonists, literature affinity; cited from earlier work
T1 construct: expressed in transfected cells

human D2 receptor [2] = biological target: T1, human D2 receptor; experiment: [3H]spiperone binding assay, dopamine D2-receptor affinity (HEK293 cells stably expressing D2 receptors)
Protocol: Source of the dopamine-D2-receptors was cell line HEK293 which expresses the D2 receptors stably. […] All substances were evaluated in 3 independent competition experiments in six concentrations (each in triplicate). The Ki-values were calculated from the IC50-values according to Cheng-Prusoff as described in detail in [23].

[3] = ratio of Ki values at the D2 receptor

T1 sequence (P14416 whole entry): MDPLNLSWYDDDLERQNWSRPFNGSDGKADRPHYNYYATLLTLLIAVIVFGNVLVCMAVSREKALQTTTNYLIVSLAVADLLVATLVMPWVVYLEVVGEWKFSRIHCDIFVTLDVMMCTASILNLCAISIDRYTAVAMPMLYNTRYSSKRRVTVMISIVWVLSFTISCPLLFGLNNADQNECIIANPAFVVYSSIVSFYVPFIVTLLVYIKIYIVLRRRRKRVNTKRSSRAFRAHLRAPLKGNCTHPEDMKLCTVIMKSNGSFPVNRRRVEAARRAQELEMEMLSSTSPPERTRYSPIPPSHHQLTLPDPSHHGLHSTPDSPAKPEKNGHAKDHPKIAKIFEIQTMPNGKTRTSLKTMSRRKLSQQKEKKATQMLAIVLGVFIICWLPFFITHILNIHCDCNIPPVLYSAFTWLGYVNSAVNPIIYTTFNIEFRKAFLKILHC

Structure (SMILES)	D2-receptor affinity range (human D2 receptor [1])	Ki (human D2 receptor [2])	factor by which affinity is reduced compared to raclopride (human D2 receptor [2]; [3])	factor by which affinity is reduced compared to fallypride (1) (human D2 receptor [2]; [3])	other results
C=CCN1CCC[C@H]1CNC(=O)c1cc(CCCF)cc(OC)c1OC [Fallypride, fallypride, reference compound]	picomolar				Ki (human D2 receptor [2]; D2-receptor affinity, [3H]spiperone competition, 3 independent experiments, Ki from IC50 by Cheng-Prusoff, read-out: Ki (nM ± SEM)): 0.0965 ± 0.0153 nM
CCN1CCC[C@H]1CNC(=O)c1c(O)c(Cl)cc(Cl)c1OC [Raclopride, raclopride]	nanomolar				
C=CCN1CCC[C@H]1CNC(=O)c1ccc([Si](F)(C(C)(C)C)C(C)(C)C)cc1 [SiFA-DDMFP, 4c, (S)-N-((1-Allylpyrrolidine-2-yl)methyl)-4-(di-tert-butylfluorosilyl) benzamide]		62.7 ± 16.9 nM			
C=CCN1CCC[C@H]1CNC(=O)c1cc([Si](F)(C(C)(C)C)C(C)(C)C)ccc1OC [SiFA-DMFP, 4a, (S)-N-((1-Allylpyrrolidine-2-yl)methyl)-5-(di-tert-butylfluorosilyl)-2-methoxybenzamide]		13.6 ± 4.3 nM	11		factor by which affinity is reduced compared to desmethoxyfallypride (2) (human D2 receptor [2]; [3]): 22
C=CCN1CCC[C@H]1CNC(=O)c1cc([Si](F)(C(C)(C)C)C(C)(C)C)cc(OC)c1OC [SiFA-FP, 4b, (S)-N-((1-Allylpyrrolidine-2-yl)methyl)-5-(di-tert-butylfluorosilyl)-2,3-dimethoxybenzamide]		33 ± 7.6 nM		342	
C=CCN1CCCC1CNC(=O)c1cc(CCCS[C@H]2CC(=O)N(c3ccc([Si](F)(C(C)(C)C)C(C)(C)C)cc3)C2=O)cc(OC)c1OC (stereo partly drawn) [SiFA-M-FP, 5, (S)-N-((1-Allylpyrrolidin-2-yl)methyl)-5-(3-(1-(4-(di-tert-butylfluorosilyl)phenyl)-2,5-dioxopyrrolidin-3-ylthio)propyl)-2,3-dimethoxybenzamide]		4.21 ± 0.41 nM	3.5	44	

Source: publication PMC6264418, “t-Bu2SiF-Derivatized D2-Receptor Ligands: The First SiFA-Containing Small Molecule Radiotracers for Target-Specific PET-Imaging” (Molecules, 2011)
